Data published in patent US20160229835A1, “NOVEL PYRIDYLOXYACETYL TETRAHYDROISOQUINOLINE COMPOUNDS USEFUL AS NAMPT INHIBITORS” (ELI LILLY AND COMPANY, priority 2013, published 2016).

Experiments:
A2780 Tumor Xenografts = test: LC-MS Analysis of NAD+ in A2780 Tumor Xenografts; assay type: in vivo, mice; conditions: oral gavage
Protocol: (§1) The purpose of this assay is to measure effects of NAMPT inhibitors on NAD^+ formation in cancer cells. LC-MS analysis of NAD^+ metabolites: nicotinamide mononucleotide (NMN), NAD^+, reduced nicotinamide adenine dinucleotide (NADH), and nicotinamide adenine dinucleotide phosphate (NADP) is performed on an HPLC system coupled to a Thermo Quantum Ultra triple quadrupole mass spectrometer operated in positive heated electrospray mode with selected reaction monitoring detection. For cell extracts, 50 μL of extract and 10 μL of 10 μM internal standard (IS) solution is transferred to a 96-well plate, dried under nitrogen and reconstituted in 50 μL of water. For tissue extracts, 20 μL of extract and 10 μL of IS solution are dried and reconstituted in 50 μL water. The IS solution contains 10 μM nicotinamide-d4 (C/D/N Isotopes), nicotinic acid-d4 (C/D/N Isotopes), nicotinamide mononucleotide-d4 (prepared by custom synthesis) and nicotinamide 1,N^6-ethenoadenine dinucleotide in methanol. The metabolites are separated on a Waters XBRIDGE™ Amide (2.1×50 mm, 3 μm) with an injection volume of 10 μL and a flow rate of 1 mL/minute using 10 mM ammonium acetate in 95% acetonitrile for mobile phase A and 10 mM ammonium acetate in 50% acetonitrile for mobile phase B. The gradient is as follows: 0 minutes, 0% B; 2.5 minutes, 70% B; 2.51 minutes, 100% B; 2.8 minutes, 100% B; 2.81 minutes, 0% B, 3.6 minutes, 0% B.
(§2) The purpose of this assay is to measure the effects of NAMPT inhibitors on NAD^+ levels in vivo as described above. Tumors are grown and treated as described below for efficacy in xenograft tumor models below (7 animals/group). Each compound is also formulated as described for efficacy in xenograft tumor models below. Vehicle is 20% of CAPTISOL® and 25 mM of phosphate buffer, pH 2 without compound. After the completion of the treatment, tumor tissues (˜50 mg each) are homogenized in an ice cold extraction buffer (1 mL of 70% methanol/water; HPLC grade for 2 minutes in a tissue lyser II (QIAGEN™) at frequency 30 Hz. The resulting preparations are centrifuged at 14000×g for 6 minutes. The supernatant fractions (500 μL each) are collected and extracted with chloroform (0.5 mL). The aqueous fractions (0.3 mL each) are collected into a 96-well plate ready for LC-MS analysis. The LC-MS analysis of NAD metabolites is performed as described above.
(§3) The purpose of this assay is to measure reduction in tumor volume in response to test compound administration. A2780 and NCI-H1155 (NSCLC) cells are grown as described above for IVTI studies. Cells are harvested and injected subcutaneously onto the rear flank of nude mice. When tumors are established (7-21 days after implant), animals are randomized and grouped into control and test groups (7 animals/group). The test compound is formulated in 20% of CAPTISOL® and 25 mM of phosphate buffer, pH 2. Test compound and vehicle (20% of CAPTISOL® and 25 mM of phosphate buffer, pH 2 without compound) are administered by oral gavage. Tumor response is determined by tumor volume measurement (caliper) performed twice a week during the course of treatment and reported as percent of tumor volume of each treatment group divided by tumor volume of the vehicle control group. […]

[1] = tested on: MCF-7 (breast cancer) cells; test: Cell Viability Assay, MCF-7; assay type: cell-based; conditions: Homo sapiens, MCF7, 72 hours
Protocol: The purpose of this assay is to measure the ability of a compound to reduce viability of different cancer cells dependent on the NAMPT-mediated NAD^+ formation in vitro. HCC1937 (breast cancer) cells are cultured in RPMI-1640 supplemented with 10% FBS. Calu-6 (lung cancer) cells and MCF-7 (breast cancer) cells are cultured in Minimum Essential Medium (MEM) (Gibco11095) supplemented with 1 mM sodium pyruvate (Gibco 11360), 1% Non-Essential Amino Acids Solution (100×; Gibco 11140) and 10% FBS. NCI-H1155 (lung cancer) cells are cultured in Dulbecco's Modified Eagle Medium (DMEM) (Gibco 11965) with 10% FBS. […] Cell viability is analyzed by using an assay kit (CYTOTOX-GLO™ Cytotoxicity Assay kit, Promega) according to the manufacturer's instructions as follows. […] Luminescence is measured using a Wallac Victor3 V 1420 Multilabel Counter (Perkin Elmer), referred to as dead cell luminescence. […] After the plate is incubated at room temperature for 15 minutes, luminescence is measured using the plate reader, referred to as total luminescence. Viable cell luminescence (CPS) is calculated by subtracting the dead cell luminescence from the total luminescence Inhibition of cell viability is calculated based on the equation as follows:
Inhibition (%)=(CPSnegative−CPSsample)/(CPSnegative−CPSpositive)*100 where CPS is the luminescence of viable cells.

[2] = tested on: NCI-H1155 Tumor Xenografts; test: LC-MS Analysis of NAD+ in NCI-H1155 Tumor Xenografts; assay type: in vivo, mice; conditions: oral gavage
Protocol: as §1, §2, §3

Row | SMILES | NAD levels (pmol/mg tissue) (A2780 Tumor Xenografts; 5 mg/kg (BID)) | NAD levels (pmol/mg tissue) (A2780 Tumor Xenografts; 10 mg/kg (BID)) | NAD levels (pmol/mg tissue) (A2780 Tumor Xenografts; 20 mg/kg (BID)) | IC50 [1] [nM] | NAD levels (pmol/mg tissue) ([2]; 2.5 mg/kg (BID)) | NAD levels (pmol/mg tissue) ([2]; 5 mg/kg (BID)) | NAD levels (pmol/mg tissue) ([2]; 10 mg/kg (BID)) | NAD levels (pmol/mg tissue) ([2]; 20 mg/kg (BID)) | NAD levels (pmol/mg tissue) (A2780 Tumor Xenografts; 8 mg/kg (BID)) | NAD levels (pmol/mg tissue) (A2780 Tumor Xenografts; 16 mg/kg (BID)) | NAD levels (pmol/mg tissue) (A2780 Tumor Xenografts; 32 mg/kg (BID)) | NAD levels (pmol/mg tissue) ([2]; 8 mg/kg (BID)) | NAD levels (pmol/mg tissue) ([2]; 16 mg/kg (BID)) | NAD levels (pmol/mg tissue) ([2]; 32 mg/kg (BID))
1 | CC(C)(O)CS(=O)(=O)Nc1ccc2c(c1)CCN(C(=O)COc1cccnc1)C2 [Example 1, 2-Hydroxy-2-methyl-N-[2-[2-(3-pyridyloxy)acetyl]-3,4-dihydro-1H-isoquinolin-6-yl]propane-1-sulfonamide] | 5.04 | 2.55 | 3.29 | 389 ± 283 | 11.38 | 7.48 | 3.63 | 1.82 | – | – | – | – | – | –
2 | COCCS(=O)(=O)Nc1ccc2c(c1)CCN(C(=O)COc1cccnc1)C2 [Example 2, 2-Methoxy-N-[2-[2-(3-pyridyloxy)acetyl]-3,4-dihydro-1H-isoquinolin-6-yl]ethanesulfonamide] | – | – | – | 352 ± 252 | – | – | – | – | 3.97 | 6.52 | 6.38 | 5.19 | 1.98 | 0.84
